How the values were obtained:
[1] = Mean residence time (MRT) of epirubicin following intrahepatic epirubicin solution at 1 mg.Kg-1 dose in rabbit; assay type: ADME, organism-based, Oryctolagus cuniculus; conditions: both, New Zealand White, blood, read-out: Mean residence time (converted)
[2] = Urinary excretion of epirubicin following epirubicin at 60 mg.m-2 dose in cancer patients; assay type: ADME, organism-based; conditions: human, urine, at 60 mg/m2, read-out: Compound recovery
[3] = Detection of epirubicin in heart following single intravenous epirubicin at 10 mg.Kg-1 dose in female mouse bearing colon tumor; assay type: ADME, organism-based, BALB/c; conditions: in vivo
[4] = Terminal elimination of metabolite of epirubicin following intravenous epirubicin at 25-35 mg.m-2 dose in cancer patients; assay type: ADME, organism-based, Plasma; conditions: human, in vivo
[5] = AUC of epirubicin following intravenous epirubicin solution at 1 mg.Kg-1 dose in rabbit; assay type: ADME, organism-based, Oryctolagus cuniculus; conditions: both, New Zealand White, blood
[6] = Half-life of terminal elimination phase of epirubicin following intravenous epirubicin at 50 mg.m-2 dose in cancer patients; assay type: ADME, organism-based; conditions: human, plasma
[7] = Plasma clearance of epirubicin following intravenous epirubicin at 20 mg.m-2 dose in cancer patients; assay type: ADME, organism-based; conditions: human, in vivo
[8] = Increase in serum total cholesterol level following reference intravenous epirubicin at 1 mg.Kg-1 per week in rat; assay type: toxicity, organism-based, SD; conditions: in vivo
[9] = Terminal half-life of epirubicin following intrahepatic epirubicin solution at 1 mg.Kg-1 dose in rabbit; assay type: ADME, organism-based, Oryctolagus cuniculus; conditions: both, New Zealand White, blood
[10] = Incidence of persistent proteinuria following reference intravenous epirubicin at 1 mg.Kg-1 per week in rat; assay type: toxicity, organism-based, SD; conditions: in vivo
[11] = Increase in serum phospholipid level following reference intravenous epirubicin at 1 mg.Kg-1 per week in rat; assay type: toxicity, organism-based, SD; conditions: in vivo
[12] = Cumulative urinary excretion of epirubicin and its metabolites following epirubicin at 50 mg.m-2 dose in cancer patients; assay type: ADME, organism-based, Urine; conditions: human, in vivo; at 50 mg/m2
[13] = Volume of distribution of epirubicin following intrahepatic epirubicin emulsion at 1 mg.Kg-1 dose in rabbit; assay type: ADME, organism-based, Oryctolagus cuniculus; conditions: both, New Zealand White, blood
[14] = Half-life of epirubicin in heart following single intravenous epirubicin at 10 mg.Kg-1 dose in female mouse bearing colon tumor; assay type: ADME, organism-based; conditions: BALB/c
[15] = Initial phase half-life of epirubicin following intravenous epirubicin at 70 mg.m-2 dose in cancer patients; assay type: ADME, organism-based, Plasma; conditions: human, in vivo
[16] = Plasma clearance of epirubicin following intravenous epirubicin at 50 mg.m-2 dose in cancer patients; assay type: ADME, organism-based; conditions: human, in vivo
[17] = Recovery of epirubicin following intraperitoneal epirubicin at 4 mg.Kg-1 dose in mouse; assay type: ADME, organism-based, CD-1, Plasma; conditions: in vivo, ip
[18] = Biliary excretion of epirubicin following epirubicin at 50 mg.m-2 dose in cancer patients; assay type: ADME, organism-based; conditions: human, bile, at 50 mg/m2, read-out: Compound recovery
[19] = Cumulative urinary excretion of epirubicin and its metabolites following epirubicin at 60-150 mg.m-2 dose in cancer patients; assay type: ADME, organism-based, Urine; conditions: human, in vivo
[20] = Plasma clearance of epirubicin following intravenous epirubicin at 70 mg.m-2 dose in cancer patients; assay type: ADME, organism-based; conditions: human, in vivo
[21] = Plasma clearance of epirubicin following intravenous epirubicin at 1 mg.Kg-1 dose in rabbit; assay type: ADME, organism-based, Oryctolagus cuniculus; conditions: both, New Zealand White
[22] = Plasma clearance of epirubicin following intravenous epirubicin at 40-60 mg.m-2 dose in cancer patients; assay type: ADME, organism-based; conditions: human, in vivo
[23] = Plasma clearance of epirubicin following intravenous epirubicin at 25-35 mg.m-2 dose in cancer patients; assay type: ADME, organism-based; conditions: human, in vivo
[24] = Intermediate phase half-life of epirubicin following intravenous epirubicin at 75 mg.m-2 dose in cancer patients; assay type: ADME, organism-based, Plasma; conditions: human, in vivo
[25] = Terminal half-life of epirubicin following intravenous epirubicin at 1 mg.Kg-1 dose in rabbit; assay type: ADME, organism-based, Oryctolagus cuniculus; conditions: both, New Zealand White, plasma
[26] = Initial phase half-life of epirubicin following intravenous epirubicin at 90-150 mg.m-2 dose in cancer patients; assay type: ADME, organism-based, Plasma; conditions: human, in vivo

In the case of COc1cccc2c1C(=O)c1c(O)c3c(c(O)c1C2=O)C[C@@](O)(C(=O)CO)C[C@@H]3O[C@H]1C[C@H](N)[C@@H](O)[C@H](C)O1.Cl [EPIRUBICIN HYDROCHLORIDE], the MRT [1] is reported as 1.38 h, the dose excreted at 168 h [2] is reported as 6.4% and the Compound recovery [3] is reported as “OUTCOME = Observed”. It also gave a t1/2 [4] of 21.1 h, an AUC [5] of 180 ng·h/mL and a half-life [6] of 18.3 h. The CLp [7] was 71.5 L.h-1.m-2, the CHOL_CHANGE [8] was “OUTCOME = Increased” and the half-life [9] was 1.14 h. For the same compound, the Incidence [10] was “OUTCOME = Observed”, the PHOSLPD_CHANGE [11] was “OUTCOME = Increased” and the Radiolabel recovery [12] was 10.5%. It also gave a Vd [13] of 137 L/kg, a half-life [14] of 10.6 h and a t1/2 [15] of 3.15 min. For the same compound, the CLp [16] was 37 L.h-1.m-2, the Compound recovery [17] was 49 10^-9M and the dose excreted at 96 h [18] was 21.9%. The Radiolabel recovery [19] was 5.9%, the CLp [20] was 84.2 L.h-1.m-2 and the clearance [21] was 196 mL/min. For the same compound, the CLp [22] was 50.1 L.h-1.m-2, the CLp [23] was 41.5 L.h-1.m-2 and the t1/2 [24] was 1.7 h. It also gave a half-life [25] of 22.9 h and a t1/2 [26] of 0.167 h.

From ChEMBL document CHEMBL3508140 (2016)
